Biological target: T1, Nem1-Spo7 protein phosphatase complex (Saccharomyces cerevisiae, UniProt P38757)
T1 construct: Protein A-tagged Nem1 with Spo7, overexpressed in S. cerevisiae RS453, IgG-Sepharose purified, reconstituted into phospholipid vesicles
T1 sequence (P38757 1-446): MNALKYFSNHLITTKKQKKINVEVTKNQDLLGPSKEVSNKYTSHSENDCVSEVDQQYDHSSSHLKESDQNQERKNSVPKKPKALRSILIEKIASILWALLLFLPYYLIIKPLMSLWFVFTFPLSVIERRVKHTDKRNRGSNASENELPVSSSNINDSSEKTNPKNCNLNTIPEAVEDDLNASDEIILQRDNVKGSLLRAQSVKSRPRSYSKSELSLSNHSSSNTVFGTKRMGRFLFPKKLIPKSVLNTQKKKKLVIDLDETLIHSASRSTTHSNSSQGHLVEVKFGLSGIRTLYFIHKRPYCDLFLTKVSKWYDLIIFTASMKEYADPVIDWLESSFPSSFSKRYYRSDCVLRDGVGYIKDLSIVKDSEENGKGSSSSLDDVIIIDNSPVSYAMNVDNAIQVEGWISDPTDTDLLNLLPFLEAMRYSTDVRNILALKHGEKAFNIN
T1 sequence (P18410 1-259 partner): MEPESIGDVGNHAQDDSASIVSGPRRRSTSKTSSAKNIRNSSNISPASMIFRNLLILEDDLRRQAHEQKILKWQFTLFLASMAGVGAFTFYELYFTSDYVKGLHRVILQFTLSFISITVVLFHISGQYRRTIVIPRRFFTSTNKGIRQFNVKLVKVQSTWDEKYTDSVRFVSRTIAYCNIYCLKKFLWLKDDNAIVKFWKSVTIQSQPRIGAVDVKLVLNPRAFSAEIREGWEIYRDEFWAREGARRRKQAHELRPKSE
Assay: release of […] from […]Pah1, proteoliposomes
Assay type: biochemical
Settings: activator (cooperative), direct binding not shown, membrane effect possible; reconstituted in PC/PE/PI/PS vesicles; substrate Pah1 phosphorylated by Pho85-Pho80; 10 mM MgCl2, pH 5.0, 30 °C

fold stimulation at 10 mol %: 3.6 fold
SMILES: CCCCCCCC/C=C\CCCCCCCC(=O)OC[C@H](COP(=O)(O)O)OC(=O)CCCCCCC/C=C\CCCCCCCC [PA]

— PMC9587005, “Phosphatidic Acid Mediates the Nem1-Spo7/Pah1 Phosphatase Cascade in Yeast Lipid Synthesis” (Journal of Lipid Research, 2022)
